Like-named read-outs stand apart in the source and are kept apart here.
Experiments:
HCV NS3/4A wild type = molecular target: T1, HCV NS3/4A wild type (Hepatitis C virus genotype 1b, UniProt Q9WMX2); test: Mass spectrometric analysis of covalent modification (MALDI-TOF); format: binding; conditions: 10× excess of test compound to protein; MALDI-TOF
T1 construct: HCV NS3/4A wild type (wt) was incubated for 1 hr at a 10× fold access of test compound to protein; purchased Bioenza, Calif
Procedure: Mass spectrometric analysis of HCV wild type or HCV variant C159S in the presence of test compound is performed. 100 pmols of HCV wild type (Bioenza, Calif.) is incubated with test compound for 1 hr and 3 hrs at 10-fold access of test compound to protein. 1 ul aliquots of the samples (total volume of 4.24 ul) are diluted with 10 ul of 0.1% TFA prior to micro C4 ZipTipping directly onto the MALDI target using Sinapinic acid as the desorption matrix (10 mg/mL in 0.1% TFA:Acetonitrile 50:50). Analyses are performed on a Shimadzu Biotech Axima TOF2 (Shimadzu Instruments) matrix-assisted-laser desorption/ionization Time-of-Flight (MALDI-TOF) mass spectrometer. The same procedure is carried out on 100 pmols of HCV C159S mutant of HCV protease for 3 hrs at 10-fold excess of test compound to protein.
As depicted in FIGS. 1 and 2, mass spectrometric analysis of HCV wild type in the presence of test compounds I-1 and I-25 was performed using the following protocol: HCV NS3/4A wild type (wt) was incubated for 1 hr at a 10× fold access of test compound to protein. 2 ul aliquots of the samples were diluted with 10 ul of 0.1% TFA prior to micro C4 ZipTipping directly onto the MALDI target using Sinapinic acid as the desorption matrix (10 mg/ml in 0.1% TFA:Acetonitrile 50:50). For intact protein mass measurement the instrument was set in linear mode using a pulsed extraction setting of 24,500 and apomyoglobin as the standard to calibrate the instrument.

[1] = molecular target: T2, HCV NS3/4A 1b protease wild type (Hepatitis C virus genotype 1b, UniProt Q9WMX2); test: HCV protease FRET assay (IC50_APP), Example 16; format: biochemical
T2 construct: 10× stocks of NS3/4A protease enzyme from Bioenza (Mountain View, Calif.); purchased Bioenza (Mountain View, Calif.)
Procedure: (§1) The following protocol was used to generate “apparent” IC50 (IC50 APP) values as depicted in Table 6, below. […] 5 μL of each enzyme were added to Corning (#3575) 384-well, black, microtiter plates (Corning, N.Y.) after spotting a 0.5 μL volume of 50% DMSO and serially diluted compounds prepared in 50% DMSO. Protease reactions were immediately started after enzyme addition with the addition of 45 μL of the FRET substrate and monitored for 60-90 minutes at λex485/λem520 in a Synergy^4 plate reader from BioTek (Winooski, Vt.). At the conclusion of each assay, progress curves from each well were examined for linear reaction kinetics and fit statistics (R^2, 95% confidence intervals, absolute sum of squares).
(§2) The compound numbers correspond to the compound numbers in Table 3. […] ;

[2] = molecular target: T3, HCV NS3/4A 1b protease D168A (Hepatitis C virus genotype 1b, UniProt Q9WMX2, D1194A); test: HCV protease FRET assay (IC50_APP), Example 16; format: biochemical
T3 construct: 10× stocks of NS3/4A protease enzyme from Bioenza (Mountain View, Calif.); purchased Bioenza (Mountain View, Calif.)
Procedure: as §1, §2

[3] = molecular target: T4, HCV NS3/4A 1b protease A156T (Hepatitis C virus genotype 1b, UniProt Q9WMX2, A1182T); test: HCV protease FRET assay (IC50_APP), Example 16; format: biochemical
T4 construct: 10× stocks of NS3/4A protease enzyme from Bioenza (Mountain View, Calif.); purchased Bioenza (Mountain View, Calif.)
Procedure: as §1, §2

[4] = tested on: HCV RNA replicon in cell line ET (luc-ubi-neo/ET), human Huh7 hepatoma; test: Replicon luciferase assay, Example 26; format: cell-based; conditions: Hepatitis C virus, Huh-7, assay of Example 26, 72 hr; for EC50: read-out: Inhibition, Replicon, EC50 value; for EC90: read-out: Inhibition, Replicon, EC90 value
Procedure: The compounds were assayed to evaluate the antiviral activity and cytotoxicity of compounds using replicon-derived luciferase activity. This assay used the cell line ET (luc-ubi-neo/ET), which is a human Huh7 hepatoma cell line that contains an HCV RNA replicon with a stable luciferase (Luc) reporter and cell culture-adaptive mutations. The ET cell line was grown in a 5% CO2 incubator at 37° C. in Dulbecco's modified essential media (DMEM) supplemented with 2 mM L-glutamine, nonessential amino acids, 100 U of penicillin/ml, 100 μg of streptomycin/mL, and 10% fetal bovine serum. G418 (Geneticin; Invitrogen) was added at a final concentration of 400 ug//mL.
All cell culture reagents were obtained from Invitrogen (Carlsbad). Cells were trypsinized (1% trypsin:EDTA) and plated out at 5×10^3 cells/well in white 96-well assay plates (Costar) dedicated to cell number (cytotoxicity) or antiviral activity assessments. Test compounds were added at six 3-fold concentrations each and the assay was run in DMEM, 5% FBS, 1% pen-strep, 1% glutamine, 1% non essential amino acid. Human interferon alpha-2b (PBL Biolabs, New Brunswick, N.J.) was included in each run as a positive control compound. Cells were processed 72 hr post test compound addition when the cells were still subconfluent. Antiviral activity was measured by analyzing replicon-derived luciferase activity using the Steady-Glo Luciferase Assay System (Promega, Madison, Wis.) according to manufacturer's instruction. The number of cells in each well was determined by Cell Titer Blue Assay (Promega). Compound profile was derived by calculating applicable EC50 (effective concentration inhibiting virus replication by 50%), EC90 (effective concentration inhibiting virus replication by 90%), IC50 (concentration decreasing cell viability by 50%) and SI50 (selective index: […]) values.

[5] = molecular target: T5, HCV NS3/4A 1b protease R155K (Hepatitis C virus genotype 1b, UniProt Q9WMX2, R1181K); test: HCV protease FRET assay (IC50_APP), Example 16; format: biochemical; conditions: reaction started immediately after enzyme addition, read-out: Inhibition (apparent IC50, IC50_APP), HCV R155K
T5 construct: 10× stocks of NS3/4A protease enzyme from Bioenza (Mountain View, Calif.); purchased Bioenza (Mountain View, Calif.)
Procedure: as §1, §2

[6] = read-out: Inhibition (apparent IC50, IC50_APP), WT, FRET, reaction started immediately after enzyme addition
[7] = read-out: Inhibition (apparent IC50, IC50_APP), HCV D168A, FRET, reaction started immediately after enzyme addition

| SMILES | Covalent modification of HCV NS3/4A wild type (HCV NS3/4A wild type) | IC50 [1] [µM] | IC50 [2] [µM] | IC50 [3] [µM] | EC50 [4] [µM] | EC90 [4] [µM] | IC50 [5] [µM] | IC50 [1, 6] [µM] | IC50 [2, 7] [µM] |
| --- | --- | --- | --- | --- | --- | --- | --- | --- | --- |
| C=CC(=O)N[C@H](C)C(=O)N1C[C@H](OC(=O)N2Cc3cccc(F)c3C2)C[C@H]1C(=O)N[C@]1(C(=O)NS(=O)(=O)C2CC2)C[C@H]1C=C [Compound I-8, (3R,5S)-1-((R)-2-acrylamidopropanoyl)-5-((1R,2S)-1-(cyclopropylsulfonylcarbamoyl)-2-vinylcyclopropylcarbamoyl)pyrrolidin-3-yl-4-fluoroisoindoline-2-carboxylate] | measurable covalent modification | < 0.01 | < 0.01 | < 0.01 | – | – | – | – | – |
| C=CC(=O)N[C@@H](C(=O)N1C[C@H](OC(=O)N2Cc3cccc(F)c3C2)C[C@H]1C(=O)N[C@]1(C(=O)NS(=O)(=O)C2CC2)C[C@H]1C=C)C(C)C [Compound I-9, (3R,5S)-1-((R)-2-acrylamido-3-methylbutanoyl)-5-((1R,2S)-1-(cyclopropylsulfonylcarbamoyl)-2-vinylcyclopropylcarbamoyl)pyrrolidin-3-yl-4-fluoroisoindoline-2-carboxylate] | measurable covalent modification | < 0.01 | 0.01 to 0.1 | < 0.01 | – | – | – | – | – |
| C=C[C@@H]1C[C@]1(NC(=O)[C@@H]1C[C@@H](OC(=O)N2Cc3cccc(F)c3C2)CN1C(=O)CNC(=O)c1ccccc1OC(C)=O)C(=O)NS(=O)(=O)C1CC1 [Compound I-10, (3R,5S)-1-(2-(2-acetoxybenzamido)acetyl)-5-((1R,2S)-1-(cyclopropylsulfonylcarbamoyl)-2-vinylcyclopropylcarbamoyl)pyrrolidin-3-yl-4-fluoroisoindoline-2-carboxylate] | measurable covalent modification | 0.1 to 1 | 1 to 10 | 1 to 10 | – | – | – | – | – |
| C=C[C@@H]1C[C@]1(NC(=O)[C@@H]1CC(OC(=O)N2Cc3cccc(F)c3C2)CN1C(=O)[C@H](CCC(=O)/C=C/C)NC(=O)OC(C)(C)C)C(=O)NS(=O)(=O)C1CC1 (stereo partly shown) [Compound I-26] | measurable covalent modification | < 0.01 | < 0.01 | < 0.01 | – | – | – | – | – |
| C=C[C@@H]1C[C@]1(NC(=O)[C@@H]1CC(OC(=O)N2Cc3cccc(F)c3C2)CN1C(=O)C(CN(C)C(=O)/C=C/CN(C)C)NC(=O)OC(C)(C)C)C(=O)NS(=O)(=O)C1CC1 (stereo partly shown) [Compound I-50] | – | 0.01 to 0.1 | 1 to 10 | – | 1 to 10 | 1 to 10 | 1 to 10 | – | – |
| C=CC(=O)N1CC(C(NC(=O)OC2CCCC2)C(=O)N2CC(OC(=O)N3Cc4cccc(F)c4C3)C[C@H]2C(=O)N[C@]2(C(=O)NS(=O)(=O)C3CC3)C[C@H]2C=C)C1 (stereo partly shown) [Compound I-51] | – | < 0.01 | 0.01 to 0.1 | – | 0.1 to 1 | 1 to 10 | 0.01 to 0.1 | – | – |
| CC(C)(C)OC(=O)N[C@H]1CCN(S(=O)(=O)c2ccccc2[N+](=O)[O-])CC/C=C\[C@@H]2C[C@@]2(C(=O)NS(=O)(=O)C2CC2)NC(=O)[C@@H]2CC(OC(=O)N3Cc4cccc(F)c4C3)CN2C1=O (stereo partly shown) [Compound I-53] | – | – | – | – | 0.01 to 0.1 | 0.1 to 1 | < 0.01 | < 0.01 | < 0.01 |
| CC(C)(C)OC(=O)N[C@H]1CCCN(S(=O)(=O)c2ccccc2[N+](=O)[O-])C/C=C\[C@@H]2C[C@@]2(C(=O)NS(=O)(=O)C2CC2)NC(=O)[C@@H]2CC(OC(=O)N3Cc4cccc(F)c4C3)CN2C1=O (stereo partly shown) [Compound I-54] | – | – | – | – | 0.1 to 1 | > 10 | 0.01 to 0.1 | < 0.01 | 0.01 to 0.1 |
| C=C[C@@H]1C[C@]1(NC(=O)[C@@H]1C[C@@H]2CN1C(=O)[C@H](CCC(=O)C=C(C)C)NC(=O)OCC(C)(C)CC/C=C/c1cccc3c1CN(C3)C(=O)O2)C(=O)NS(=O)(=O)C1CC1 [Compound I-55] | – | < 0.01 | 0.01 to 0.1 | < 0.01 | < 0.01 | – | 0.01 to 0.1 | – | – |
| CC[C@@H]1C[C@]1(NC(=O)[C@@H]1C[C@@H]2CN1C(=O)[C@H](CCC(=O)C=C(C)C)NC(=O)OCC(C)(C)CC/C=C/c1cccc3c1CN(C3)C(=O)O2)C(=O)NS(=O)(=O)C1CC1 [Compound I-56] | – | < 0.01 | 0.1 to 1 | – | < 0.01 | – | 0.1 to 1 | – | – |
| C=C[C@@H]1C[C@]1(NC(=O)[C@@H]1CC(OC(=O)N2Cc3cccc(F)c3C2)CN1C(=O)[C@H](CC(=O)C(=C)C)NC(=O)OC(C)(C)C)C(=O)NS(=O)(=O)C1CC1 (stereo partly shown) [Compound I-68] | – | < 0.01 | < 0.01 | – | 0.1 to 1 | – | < 0.01 | – | – |
| C=C(C)C(=O)C[C@H](NC(=O)OC(C)(C)C)C(=O)N1CC(OC(=O)N2Cc3cccc(F)c3C2)C[C@H]1C(=O)N[C@]1(C(=O)NS(=O)(=O)C2CC2)C[C@H]1CC (stereo partly shown) [Compound I-69] | – | < 0.01 | 0.01 to 0.1 | – | 0.1 to 1 | – | < 0.01 | – | – |
| C=C[C@@H]1C[C@]1(NC(=O)[C@@H]1CC(OC(=O)N2Cc3cccc(F)c3C2)CN1C(=O)[C@H](CCC(=O)/C=C\C(C)(C)C)NC(=O)OC(C)(C)C)C(=O)NS(=O)(=O)C1CC1 (stereo partly shown) [Compound I-71] | – | < 0.01 | 0.1 to 1 | – | < 0.01 | – | 0.1 to 1 | – | – |
| C=C[C@@H]1C[C@]1(NC(=O)[C@@H]1C[C@@H]2CN1C(=O)[C@H](CC(=O)C=C(C)C)NC(=O)OCC(C)(C)CC/C=C/c1cccc3c1CN(C3)C(=O)O2)C(=O)NS(=O)(=O)C1CC1 [Compound I-79] | – | < 0.01 | 0.01 to 0.1 | – | < 0.01 | – | < 0.01 | – | – |
